Experimental findings from patent US20240383908A1, “SYNTHESIS AND APPLICATION OF PHOSPHATASE DEGRADER” (HINOVA PHARMACEUTICALS INC., priority 2021, published 2024) are described below.

The target of assay [1] is T1, SHP2 protein (Homo sapiens, UniProt Q06124).
T1 sequence (Q06124 1-593): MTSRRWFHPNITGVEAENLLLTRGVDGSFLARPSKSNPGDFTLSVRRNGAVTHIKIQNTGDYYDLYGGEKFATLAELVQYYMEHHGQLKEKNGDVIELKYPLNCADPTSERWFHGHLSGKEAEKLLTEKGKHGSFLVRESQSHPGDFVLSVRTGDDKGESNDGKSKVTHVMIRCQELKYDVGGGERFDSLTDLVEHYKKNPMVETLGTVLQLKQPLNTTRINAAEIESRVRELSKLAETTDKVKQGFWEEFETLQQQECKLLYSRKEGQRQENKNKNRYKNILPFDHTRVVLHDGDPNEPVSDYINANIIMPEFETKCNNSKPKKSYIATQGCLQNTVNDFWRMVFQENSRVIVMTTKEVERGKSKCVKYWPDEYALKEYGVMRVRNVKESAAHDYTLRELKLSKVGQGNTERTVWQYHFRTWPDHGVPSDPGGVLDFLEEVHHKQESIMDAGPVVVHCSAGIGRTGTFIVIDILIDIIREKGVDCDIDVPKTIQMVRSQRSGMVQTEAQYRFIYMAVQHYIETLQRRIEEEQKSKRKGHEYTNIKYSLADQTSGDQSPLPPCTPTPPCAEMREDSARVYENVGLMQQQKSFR
In words: Degradation activity on SHP2 protein in MV-411 cells (Western blot, DC50). As to conditions: MV411 cells, 24 hours, read-out: Degradation activity for differenct cell lines MV411 (DC50). On the set-up: endogenous in cells. The assay is classed as cell-based. Summed up:
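MV-411 cells (1×10^6 cells/well, IMDM + 10% FBS) were treated 24 h with compound at 0.1-100 nM final, 0.1% DMSO, duplicates. SHP2 measured by Western blot against GAPDH, band density normalised to DMSO control; DC50 from dose-response fit.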
On the technique in general: A western blot detects proteins with antibodies after separation by electrophoresis.

Assay [2] addresses T1, SHP2 protein. In words: Degradation activity on SHP2 protein in MIA Paca-2 cells (Western blot, DC50). On the set-up: endogenous in cells; host or cells: MIA Paca-2 cells. The following applies: read-out: Degradation activity for differenct cell lines MIA Paca-2 (DC50). It is filed as cell-based. Summed up:
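Cells were treated 24 h at 37 °C with compound (0.1–100 nM final, 0.1% DMSO). SHP2 was measured by Western blot with GAPDH as loading control, densitometry normalized to DMSO (100%). DC50, the concentration giving 50% degradation, came from a dose-response fit.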

Regarding `CC1(N)CCN(c2cnc(Sc3cccc(NC(=O)CCCCCCCCN4CCN(c5ncc(C(=O)NCc6ccc7c(c6)CN(C6CCC(=O)NC6=O)C7=O)cn5)CC4)c3)cn2)CC1` (stereo not shown) [Compound 48, 2-(4-(9-((3-((5-(4-amino-4-methylpyridin-1-yl)pyrazin-2-yl)thio)phenyl)amino)-9-oxononyl)piperazin-1-yl)-N-((2-(2,6-dioxopiperidin-3-yl)-1-oxoisoindol-5-yl)methyl)pyrimidine-5-formamide], the DC50 at SHP2 protein [1] and at SHP2 protein [2] was below 0.1 µM each time.
Take `CC1(N)CCN(c2cnc(Sc3cccc(NC(=O)/C=C/C(=O)N4CCN(CCCCCCCCC(=O)NCc5ccc6c(c5)CN(C5CCC(=O)NC5=O)C6=O)CC4)c3)cn2)CC1` (stereo not shown) [Compound 55]: the DC50 on SHP2 protein [1] was below 0.1 µM; on SHP2 protein [2], above 1 µM.
Turning to `CC1(N)CCN(c2cnc(Sc3ccc(NC(=O)CCCCCCCCOC4CN(c5ncc(C(=O)NCc6ccc7c(c6)CN(C6CCC(=O)NC6=O)C7=O)cn5)C4)cc3)cn2)CC1` (stereo not shown) [Compound 74], the DC50 at SHP2 protein [1] is below 0.1 µM; at SHP2 protein [2], 0.1 to 1 µM.
Take `Cc1ncsc1-c1ccc([C@H](C)NC(=O)[C@@H]2C[C@@H](O)CN2C(=O)[C@@H](NC(=O)c2cnc(N3CCC4(CN(CCCCCCC(=O)Nc5cccc(Sc6cnc(N7CCC(C)(N)CC7)cn6)c5)C4)C3)nc2)C(C)(C)C)cc1` [Compound 90]: the DC50 on SHP2 protein [1] and at SHP2 protein [2] was below 0.1 µM each time.
As for `CC1(N)CCN(c2cnc(Sc3cccc(NC(=O)CCCCCCN4CC5(CCN(c6ncc(C(=O)NCc7ccc8c(c7)CN(C7CCC(=O)NC7=O)C8=O)cn6)C5)C4)c3)cn2)CC1` (stereo not shown) [Compound 91], the DC50 on SHP2 protein [1] was below 0.1 µM; on SHP2 protein [2], 0.1 to 1 µM.
For `Cc1ncsc1-c1ccc([C@H](C)NC(=O)[C@@H]2C[C@@H](O)CN2C(=O)[C@@H](NC(=O)c2ccc(N3CCC4(CN(CCC(=O)Nc5cccc(Sc6cnc(N7CCC(C)(N)CC7)cn6)c5)C4)C3)nn2)C(C)(C)C)cc1` [Compound 98], the DC50 is below 0.1 µM at SHP2 protein [1] and 0.1 to 1 µM at SHP2 protein [2].
In the case of `CC1(N)CCN(c2cnc(Sc3cccc(NC(=O)CCCCCCCO[C@H]4CCN(c5ccc(C(=O)NCc6ccc7c(c6)CN(C6CCC(=O)NC6=O)C7=O)nn5)C4)c3)cn2)CC1` (stereo partly shown) [Compound 102], the DC50 at SHP2 protein [1] and at SHP2 protein [2] was below 0.1 µM in each case.
As for `CC1(N)CCN(c2cnc(Sc3cccc(NC(=O)CCCCCCCO[C@@H]4CCN(c5ncc(C(=O)NCc6ccc7c(c6)CN(C6CCC(=O)NC6=O)C7=O)cn5)C4)c3)cn2)CC1` (stereo partly shown) [Compound 104], the DC50 on SHP2 protein [1] is below 0.1 µM; at SHP2 protein [2], above 1 µM.
Turning to `Cc1ncsc1-c1ccc([C@H](C)NC(=O)[C@@H]2C[C@@H](O)CN2C(=O)[C@@H](NC(=O)c2ccc(N3CCC4(CN(CCCCCCCC(=O)Nc5cccc(Sc6cnc(N7CCC(C)(N)CC7)cn6)c5)C4)C3)nn2)C(C)(C)C)cc1` [Compound 105], the DC50 at SHP2 protein [1] was below 0.1 µM; on SHP2 protein [2], 0.1 to 1 µM.
As to `CC1(N)CCN(c2cnc(Sc3cccc(NC(=O)CCCCCCCN4CC5(CCN(c6ccc(COc7cccc8c7CN(C7CCC(=O)NC7=O)C8=O)nn6)C5)C4)c3)cn2)CC1` (stereo not shown) [Compound 107], the DC50 is below 0.1 µM at SHP2 protein [1] and above 1 µM on SHP2 protein [2].
`O=C1CCC(N2Cc3cc(CNC(=O)c4ccc(N5CCC6(CN(CCCCCCC(=O)Nc7cccc(Sc8cnc(N9CCC%10(CCNC%10)CC9)cn8)c7)C6)C5)nn4)ccc3C2=O)C(=O)N1` (stereo not shown) [Compound 112]: the values for the DC50 at SHP2 protein [1] and on SHP2 protein [2] were below 0.1 µM and above 1 µM, respectively.
Consider `NC1CCN(c2cnc(Sc3cccc(NC(=O)CCCCN4CC5(CCN(c6ccc(C(=O)NCc7ccc8c(c7)CN(C7CCC(=O)NC7=O)C8=O)nn6)C5)C4)c3)cn2)CC1F` (stereo not shown) [Compound 140], for which the DC50 at SHP2 protein [1] and at SHP2 protein [2] was above 1 µM each time.
As to `CC1(N)CCN(c2cnc(Sc3cccc(NC(=O)CCCCCCCOC4CCN(c5ccc(C(=O)NCc6ccc7c(c6)CN(C6CCC(=O)NC6=O)C7=O)nn5)CC4F)c3)cn2)CC1` (stereo not shown) [Compound 146], the DC50 at SHP2 protein [1] and on SHP2 protein [2] was below 0.1 µM each time.
Turning to `CC1(N)CCN(c2cnc(Sc3cccc(NC(=O)CCCCCCN4CC5(CCN(c6ccc(C(=O)NCc7ccc8c(c7)CN(C7CCC(=O)NC7=O)C8=O)cn6)C5)C4)c3)cn2)CC1` (stereo not shown) [Compound 155], the 50% degradation concentration (DC50) at SHP2 protein [1] and on SHP2 protein [2] was below 0.1 µM each time.
On to `CC1(N)CCN(c2cnc(Sc3cccc(NC(=O)CCCCCCN4CC5(CCN(c6ccc(C#Cc7ccc8c(c7)CN(C7CCC(=O)NC7=O)C8=O)nn6)C5)C4)c3)cn2)CC1` (stereo not shown) [Compound 157], for which the DC50 is below 0.1 µM at SHP2 protein [1] and above 1 µM on SHP2 protein [2].
For `CC1(N)CCN(c2cnc(Sc3cccc(NC(=O)CCCCCCN4CC5(CCN(C6CC(C(=O)NCc7ccc8c(c7)CN(C7CCC(=O)NC7=O)C8=O)C6)C5)C4)c3)cn2)CC1` (stereo not shown) [Compound 160] the same measures were 0.1 to 1 µM and above 1 µM.
With `CC1(N)CCN(c2cnc(Sc3cccc(NC(=O)CCCCCOC4CC5(CCN(c6ccc(C(=O)NCc7ccc8c(c7)CN(C7CCC(=O)NC7=O)C8=O)nn6)C5)C4)c3)cn2)CC1` (stereo not shown) [Compound 166], the DC50 on SHP2 protein [1] and at SHP2 protein [2] was below 0.1 µM in each case.
Take `CC1(N)CCN(c2cnc(Sc3cccc(NC(=O)CCCCCCN4CC5(CCN(c6ncc(C(=O)NCc7ccc8c(c7)CN(C7CCC(=O)NC7=O)C8=O)cc6C(F)(F)F)C5)C4)c3)cn2)CC1` (stereo not shown) [Compound 170]: the half-maximal degradation concentration (DC50) at SHP2 protein [1] was below 0.1 µM; at SHP2 protein [2], 0.1 to 1 µM.
In the case of `CC1(N)CCN(c2cnc(Sc3cccc(NC(=O)CCCCCCN4CC5(CCN(c6ccc(C(NCc7ccc8c(c7)CN(C7CCC(=O)NC7=O)C8=O)C(F)(F)F)nn6)C5)C4)c3)cn2)CC1` (stereo not shown) [Compound 193, N-(3-((5-(4-amino-4-methylpyridin-1-yl)pyrazin-2-yl)thio)phenyl)-7-(6-(6-(1-(((2-(2,6-dioxopiperidin-3-yl)-1-oxoisoindol-5-yl)methyl)amino)-2,2,2-trifluoroethyl)pyridazin-3-yl)-2,6-diazaspiro[3.4]octan-2-yl)heptanamide], the DC50 on SHP2 protein [1] is above 1 µM.
For `NC1CCN(c2cnc(Sc3cccc(NC(=O)CCCCCCN4CC5(CCN(c6ccc(C(=O)NCc7ccc8c(c7)CN(C7CCC(=O)NC7=O)C8=O)nn6)C5)C4)c3)cn2)CC1CO` (stereo not shown) [Compound 194], the DC50 on SHP2 protein [1] was below 0.1 µM.
As to `CC1(N)CCN(c2cnc(Sc3cccc(NC(=O)CCCCCCCCCCCNc4ccc(C(=O)NCc5ccc6c(c5)CN(C5CCC(=O)NC5=O)C6=O)nn4)c3)cn2)CC1` (stereo not shown) [Compound 195], the DC50 at SHP2 protein [1] lay in the range of 0.1 to 1 µM.
Still for that read-out and setting: for `N[C@H]1CCN(c2cnc(Sc3cccc(NC(=O)CCCCCN4CC5(CCN(c6ccc(C(=O)NCc7ccc8c(c7)CN(C7CCC(=O)NC7=O)C8=O)nn6)C5)C4)c3)cn2)C[C@@H]1O` (stereo partly shown) [Compound 196] the value was above 1 µM; for `N[C@H]1CCN(c2cnc(Sc3cccc(NC(=O)CCCCCCN4CC5(CCN(c6ccc(C(=O)NCc7ccc8c(c7)CN(C7CCC(=O)NC7=O)C8=O)nn6)C5)C4)c3)cn2)C[C@@H]1O` (stereo partly shown) [Compound 197], above 1 µM; for `NC1(CO)CCN(c2cnc(Sc3cccc(NC(=O)CCCCCCN4CC5(CCN(c6ccc(C(=O)NCc7ccc8c(c7)CN(C7CCC(=O)NC7=O)C8=O)nn6)C5)C4)c3)cn2)C1` (stereo not shown) [Compound 198], above 1 µM.
For the molecule `NC1(CO)CCN(c2cnc(Sc3cccc(NC(=O)CCCCCCCNc4ccc(-c5ccc(C(=O)NCc6ccc7c(c6)C(=O)N(C6CCC(=O)NC6=O)C7)nn5)cc4)c3)cn2)CC1` (stereo not shown) [Compound 201], the DC50 at SHP2 protein [1] lay in the range of 0.1 to 1 µM.
Still for that read-out and setting: in the case of `NC1(CO)CCN(c2cnc(Sc3cccc(NC(=O)CCCCCCCCN4CC=C(c5ccc(C(=O)NCc6ccc7c(c6)CN(C6CCC(=O)NC6=O)C7=O)nn5)CC4)c3)cn2)CC1` (stereo not shown) [Compound 202] it was below 0.1 µM.
Still for that read-out and setting: in the case of `CC(C)(C)OC(=O)NCC1(O)C2CCC1CN(c1cnc(Sc3cccc(NC(=O)CCCCCCN4CC5(CCN(c6ccc(C(=O)NCc7ccc8c(c7)CN(C7CCC(=O)NC7=O)C8=O)nn6)C5)C4)c3)cn1)C2` (stereo not shown) [Compound 203] it was above 1 µM.
Regarding `NCC1(O)C2CCC1CN(c1cnc(Sc3cccc(NC(=O)CCCCCCN4CC5(CCN(c6ccc(C(=O)NCc7ccc8c(c7)CN(C7CCC(=O)NC7=O)C8=O)nn6)C5)C4)c3)cn1)C2` (stereo not shown) [Compound 204], the DC50 on SHP2 protein [1] is above 1 µM.
On to `CC(C)(C)OC(=O)NC1CN(c2cnc(Sc3cccc(NC(=O)CCCCCCN4CC5(CCN(c6ccc(C(=O)NCc7ccc8c(c7)CN(C7CCC(=O)NC7=O)C8=O)nn6)C5)C4)c3)cn2)CC1O` (stereo not shown) [Compound 205], for which the 50% degradation concentration (DC50) at SHP2 protein [1] was above 1 µM.
With `NC1CN(c2cnc(Sc3cccc(NC(=O)CCCCCCN4CC5(CCN(c6ccc(C(=O)NCc7ccc8c(c7)CN(C7CCC(=O)NC7=O)C8=O)nn6)C5)C4)c3)cn2)CC1O` (stereo not shown) [Compound 206], at SHP2 protein [1], the DC50 was above 1 µM.
For `NC1(CO)CCN(c2cnc(Sc3cccc(NC(=O)CCCCCC=C4CC5(CCN(c6ccc(C(=O)NCc7ccc8c(c7)CN(C7CCC(=O)NC7=O)C8=O)nn6)CC5)C4)c3)cn2)CC1` (stereo not shown) [Compound 210], the DC50 at SHP2 protein [1] is below 0.1 µM.

By DC50 is commonly meant the concentration giving 50% degradation.
